In PubChem BioAssay AID248 (DTP/NCI, 2004):
Values joined by “and” are separate entries in the source; they are usually repeats but may differ in a detail not shown here. Equal entries are not always repeated. Toxic doses and inconclusive results are not listed. No stated cut-off is given here; in the data, active means T/C of 150% or more; inactive means T/C below 125%.

Tested on: L1210 leukemia ip in BDF1 mice, survival T/C
Assay: NCI In Vivo Anticancer Drug Screen. Data for tumor model L1210 Leukemia (intraperitoneal) in B6D2F1 (BDF1) mice
Settings: endpoint: mean survival time, higher = longer survival
In short: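 Survival endpoint. Drug-treated group vs vehicle group, expressed as T divided by C. Tumor passaged by transplantation.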

[1] = dose: 100.0 mg/kg/injection, schedule: Q01DX009 (ip), vehicle: saline with Tween-80
[2] = dose: 200.0 mg/kg/injection, schedule: Q01DX009 (ip), vehicle: saline with Tween-80
[3] = dose: 100.0 mg/kg/injection, schedule: Q01DX009 (ip), vehicle: Klucel (hydroxypropylcellulose) (HPC)

Measured: T/C

OC1C2C3CCC(CC3)C2C(C2OCCO2)C2C3CCC(C3)C12 (configuration not stated)
inactive: dose: 50.0 mg/kg/injection, schedule: Q01DX009 (ip), vehicle: saline with Tween-80 96 % of control | [1] 96 % of control | [2] 89 % of control

CCNCC#CCNCC
inactive: dose: 100.0 mg/kg/injection, schedule: Q01DX009 (ip), vehicle: saline 96 % of control | dose: 100.0 mg/kg/injection, schedule: Q04DX003 (ip), vehicle: saline 96 % of control | dose: 200.0 mg/kg/injection, schedule: Q01DX009 (ip), vehicle: saline 107 % of control | dose: 200.0 mg/kg/injection, schedule: Q04DX003 (ip), vehicle: saline 98 % of control | dose: 400.0 mg/kg/injection, schedule: Q04DX003 (ip), vehicle: saline 99 % of control

Cc1ccc(NC(=O)c2ccc(C)c(N)c2)c(C)c1
inactive: dose: 100.0 mg/kg/injection, schedule: Q01DX009 (ip), vehicle: gum acacia 100 % of control | dose: 100.0 mg/kg/injection, schedule: Q04DX003 (ip), vehicle: gum acacia 98 % of control | dose: 200.0 mg/kg/injection, schedule: Q01DX009 (ip), vehicle: gum acacia 87 % of control | dose: 200.0 mg/kg/injection, schedule: Q04DX003 (ip), vehicle: gum acacia 102 % of control | dose: 400.0 mg/kg/injection, schedule: Q01DX009 (ip), vehicle: gum acacia 87 % of control | dose: 400.0 mg/kg/injection, schedule: Q04DX003 (ip), vehicle: gum acacia 98 % of control

O=C(O)Cc1ccc([N+](=O)[O-])cc1
inactive: [1] 90 % of control | [2] 93 % of control | dose: 400.0 mg/kg/injection, schedule: Q01DX009 (ip), vehicle: saline with Tween-80 94 % of control

CCOC(=O)C(=O)Cc1ccccc1[N+](=O)[O-]
inactive: dose: 100.0 mg/kg/injection, schedule: Q01DX001 (ip), vehicle: Klucel (hydroxypropylcellulose) (HPC) 96 % of control | dose: 200.0 mg/kg/injection, schedule: Q01DX001 (ip), vehicle: Klucel (hydroxypropylcellulose) (HPC) 102 % of control | dose: 400.0 mg/kg/injection, schedule: Q01DX001 (ip), vehicle: Klucel (hydroxypropylcellulose) (HPC) 95 % of control

O=c1c2ncn(C3OC(CO)C(O)C3O)c2nc2nc[nH]n12 (configuration not stated)
inactive: dose: 100.0 mg/kg/injection, schedule: Q01DX005 (ip), vehicle: saline 93 % of control | dose: 200.0 mg/kg/injection, schedule: Q01DX005 (ip), vehicle: saline 98 % of control

COc1cc2ccc(C(C)NCC#N)cc2cc1OC (configuration not stated)
inactive: [3] 97 % of control | dose: 100.0 mg/kg/injection, schedule: Q04DX003 (ip), vehicle: Klucel (hydroxypropylcellulose) (HPC) 88 % of control | dose: 200.0 mg/kg/injection, schedule: Q01DX009 (ip), vehicle: Klucel (hydroxypropylcellulose) (HPC) 101 % of control | dose: 200.0 mg/kg/injection, schedule: Q04DX003 (ip), vehicle: Klucel (hydroxypropylcellulose) (HPC) 93 % of control | dose: 400.0 mg/kg/injection, schedule: Q04DX003 (ip), vehicle: Klucel (hydroxypropylcellulose) (HPC) 106 % of control

Cc1ccc(N(Cc2ccccc2)Cc2ccccc2)cc1
inactive: dose: 75.0 mg/kg/injection, schedule: Q01DX009 (ip), vehicle: other 103 % of control | dose: 100.0 mg/kg/injection, schedule: Q04DX002 (ip), vehicle: other 105 % of control | dose: 150.0 mg/kg/injection, schedule: Q01DX009 (ip), vehicle: other 106 % of control | dose: 200.0 mg/kg/injection, schedule: Q04DX002 (ip), vehicle: other 97 % of control | dose: 300.0 mg/kg/injection, schedule: Q01DX009 (ip), vehicle: other 98 % of control | dose: 400.0 mg/kg/injection, schedule: Q04DX002 (ip), vehicle: other 97 % of control

CC(=O)Nc1ncnc2n[nH]c(C#N)c12
inactive: dose: 50.0 mg/kg/injection, schedule: Q01DX005 (ip), vehicle: saline with Tween-80 108 % of control | dose: 100.0 mg/kg/injection, schedule: Q01DX005 (ip), vehicle: saline with Tween-80 106 % of control

CC12CCC3C(CCC4CCCCC43C)C1CCC2CO (configuration not stated)
inactive: dose: 100.0 mg/kg/injection, schedule: Q04DX002 (ip), vehicle: DMSO 101 % of control | dose: 200.0 mg/kg/injection, schedule: Q04DX002 (ip), vehicle: DMSO 99 % of control | dose: 400.0 mg/kg/injection, schedule: Q04DX002 (ip), vehicle: DMSO 89 % of control

CCCCOc1ccc(/C=N/NC(=O)Nc2ccccc2)cc1
inactive: dose: 25.0 mg/kg/injection, schedule: Q01DX009 (ip), vehicle: Klucel (hydroxypropylcellulose) (HPC) 95 % of control | dose: 50.0 mg/kg/injection, schedule: Q01DX009 (ip), vehicle: Klucel (hydroxypropylcellulose) (HPC) 97 % of control | [3] 88 % of control and 90 % of control | dose: 400.0 mg/kg/injection, schedule: Q01DX009 (ip), vehicle: Klucel (hydroxypropylcellulose) (HPC) 87 % of control
